Legend:
Type in all cases: cell-based
Conditions in all cases: Hepatitis C virus
GT2a-6a-HK6a replicon = test: Stable replicon assay, comparison to daclatasvir, GT2a-6a-HK6a
Description: (§1) The plasmid pSG-hRlucNeo-JFH1 was generated from pSG-Neo-JFH1 (Kato et al. 2003, Gastroentrology 125:1808-1817). A fragment containing the JFH-1 5′ NTR-hRluc-Neo gene and two unique restriction sites (AgeI and PmeI) was synthesized (Integrated DNA Technologies, Coralville, Iowa). The resulting plasmid was digested with AgeI and PmeI and the excised fragment (5′NTR-hRluc-Neo) was ligated into pSG-Neo-JFH1 digested with the same enzymes to generate pSG-hRlucNeo-JFH1. To allow expression of heterologous NS5A sequences, an NS5A shuttle vector was generated from pSG-Neo-JFH1, in which the entire coding sequence of NS5A plus the first eight codons of NS5B were replaced with an AfeI restriction site. This was done by Infusion cloning (Clontech, Mountain View, Calif.) from two PCR products that were generated using pSG-Neo-JFH1 as a template and the following primer pairs:
To express GT6a NS5A chimeric sequences a JFH1-based N-terminal NS5A (NS5A residues 2-107) shuttle vector was constructed by Infusion cloning from two PCR products that were generated using pSG-Neo-JFH1 as a template and the following primers: […]
Purified PCR products were inserted into an NsiI/SnaBI digested pSG-Neo-JFH1 vector by Infusion cloning following the manufacturer's instructions to generate pSG-Neo-JFH1-Nterm_5Ashuttle. […]

GT2a-2b-J8 replicon = test: Stable replicon assay, comparison to daclatasvir, GT2a-2b-J8
Description: as §1, with “pairs: […]” for “pairs:”
(§2) Stable HCV replicon cell lines were grown in complete media (Dulbecco's modified Eagle medium [DMEM], 2 mM L-glutamine, 0.1 mM essential amino acids, 1 mM sodium pyruvate, 10% fetal bovine serum) with the addition 500 μg/ml […] (G418). […] For stable and transient replicon assays, luciferase activity of compound-treated cells was measured relative to DMSO-treated cells after 72 h incubation using RENILLA-GLO™ Luciferase Assay (Promega). […]

GT2a-2b-MD2b replicon = test: Stable replicon assay, comparison to daclatasvir, GT2a-2b-MD2b
Description: as §1, with “pairs: […]” for “pairs:”
as §2

[1] = system: HCV genotype 1a replicon, NS5A P32L; test: Transient replication assay, GT1a NS5A P32L
[2] = system: HCV genotype 1a replicon, NS5A M28V Y93C; test: Transient replication assay, GT1a NS5A M28V Y93C
[3] = system: HCV genotype 1a replicon, NS5A H58D; test: Transient replication assay, GT1a NS5A H58D

| Compound | EC50 (GT2a-6a-HK6a replicon) | EC50 (GT2a-2b-J8 replicon) | EC50 (GT2a-2b-MD2b replicon) | EC50 [1] | EC50 [2] | EC50 [3] |
| --- | --- | --- | --- | --- | --- | --- |
| COC(=O)N[C@H](C(=O)N1CCC[C@H]1c1nc(-c2ccc(-c3ccc(-c4c[nH]c([C@@H]5CCCN5C(=O)[C@@H](NC(=O)OC)C(C)C)n4)cc3)cc2)c[nH]1)C(C)C [Daclatasvir, reference compound] | 0.005 nM | 20 nM | 33 nM | 1.9 nM | 3.5 nM | 1.2 nM |
| COC(=O)N[C@H](C(=O)N1C[C@]2(CCCOC2)C[C@H]1c1ncc(-c2ccc(-c3ccc4c(ccc5nc([C@@H]6C[C@@H]7CCC[C@@H]7N6C(=O)[C@@H](NC(=O)OC)C(C)C)[nH]c54)c3)cc2)[nH]1)C(C)C [Compound 16] | 0.002 nM | 9.9 nM | 21 nM | 0.046 nM | 1 nM | 0.01 nM |
